# Like-named read-outs stand apart in the source and are kept apart here.
# Tests used:
# HT-29 cells = experiment: HT-29 cell proliferation (Cell Titer-Glo, 6 days); assay type: cell-based; conditions: Homo sapiens, HT-29, 144 h
# Description: The inhibitory effect on the KIF18A target by the compounds of the present disclosure was evaluated by testing the inhibitory effect on proliferation of HT-29 cells by the compounds of the present disclosure.
# HT-29 (ATCC, HTB-38) cells were cultured in McCoy's 5a complete medium (Gibco, 12330-031) containing 10% fetal bovine serum (Gibco, 10099-141C), 100 U penicillin and […] streptomycin (Gibco, 15140-122). The Promega kit Cell Titer-Glo (Promega: G7572) was used in this method for test. • 1. HT-29 cells were cultured in T75 cell flasks (Corning, 430641) and the medium was placed in a 37° C., 5% CO2 incubator. Cells were passaged when reaching a cell density of 70%-80%, approximately twice per week. • 2. To perform the experiment, the test compounds were dissolved in DMSO to prepare a 10 mM stock solution, and the test compounds were added to the 384-well cell test plate (Corning, 3765) at the predetermined concentration using ECHO. • 3. The cell culture flask was taken out, the medium was removed, and the cells were rinsed with PBS. Then 2 mL of trypsin (with 0.25% EDTA) was added, and the flask was placed in the incubator for digestion for 4 minutes. • 4. Digestion was stopped by adding 4 mL of complete medium and the cell suspension was transferred to a centrifuge tube and centrifuged at 1000 rpm for 4 minutes. • 5. The cells were resuspended in 6 mL of complete medium, followed by cell counting. The cell density was adjusted to 4,170 cells/mL, and the cells were added to a 384-well plate at 60 μL/well. • 6. The 384-well plate was centrifuged at 500 rpm for 1 minute, and then placed in a 37° C., 5% CO2 incubator for 6 days of cultivation. • 7. Six days later, the cell culture plate was equilibrated for 10 minutes at room temperature, 25 μL of Cell Titer-Glo was added to each well, and the mixture was shaken and mixed well and let stand for 5 minutes. The luminescence values for samples in various wells were read using a microplate reader in Luminescence mode.
# (§1) The percentage of inhibition of cell proliferation by the test compound at each concentration was calculated by comparing with the values of the control group (0.3% DMSO). The IC50 values of the compounds were obtained by concentration-inhibition rate nonlinear regression analysis of the test compounds using GraphPad Prism 9.
# A2780 cells = experiment: A2780 cell anti-proliferation assay; assay type: cell-based; conditions: Homo sapiens, A2780, 144 h, 6 days, Cell Titer-Glo
# Description: A2780 (ECACC) cells were cultured in RPMI-1640 complete medium (Gibco, A1049101) containing 10% fetal bovine serum (Gibco, 10099-141C), 100 U penicillin and 100 μg/mL streptomycin (Gibco, 15140-122). The Promega kit Cell Titer-Glo (Promega: G7572) was used in this method for test.
# (§2) A2780 cells were cultured in T75 cell flasks (Corning, 430641) and the cells were placed in a 37° C., 5% CO2 incubator. Cells were passaged when reaching a cell density of 70%-80%, once every five days. To perform the experiment, the test compounds were dissolved in DMSO to prepare a 10 mM stock solution, and the test compounds were added to the 384-well cell test plate (Corning, 3765) at the predetermined concentration (19.5 nM-[…]) using ECHO. A2780 cells were digested and 4000 cells (60 μL medium) were seeded per well in the test plate. The 384-well plate was then centrifuged at 500 rpm for 1 minute, and then placed in a 37° C., 5% CO2 incubator for 6 days of cultivation. Six days later, the cell culture plate was equilibrated for 10 minutes at room temperature, 25 μL of Cell Titer-Glo was added to each well, and the mixture was shaken and mixed well and let stand for 5 minutes. The luminescence values for samples in various wells were read using a microplate reader in Luminescence mode.
# as §1, with “inhibition of A2780 cell proliferation” for “inhibition of cell proliferation”, “control group (0.2% DMSO). The” for “control group (0.3% DMSO). The”
# HCT116 cells = experiment: HCT116 cell anti-proliferation assay; assay type: cell-based; conditions: Homo sapiens, HCT-116, 144 h, 6 days, Cell Titer-Glo
# Description: HCT116 (ATCC, CCL-247) cells were cultured in McCoy's 5a complete medium (Gibco, 12330-031) containing 10% fetal bovine serum (Gibco, 10099-141C), 100 U penicillin and 100 μg/mL streptomycin (Gibco, 15140-122). The Promega kit Cell Titer-Glo (Promega: G7572) was used in this method for test.
# as §2, with “HCT116 cells” for “A2780 cells”, “70%-80%, approximately twice per week.” for “70%-80%, once every five days.”, “ECHO. […]” for “ECHO. A2780”, “and 150” for “and 4000”
# as §1, with “(0.2%” for “(0.3%”
# OVCAR-3 cells = experiment: OVCAR-3 cell proliferation (Cell Titer-Glo, 10 days); assay type: cell-based, human
# Procedure, shortened: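 400 cells per well were seeded onto pre-dispensed compound (final 0.12 nM to 10 μM) in RPMI-1640 with 20% FBS and insulin, then co-cultured for 10 days. Viability was read as Cell Titer-Glo luminescence, inhibition was taken against 0.1% DMSO control, and IC50 came from nonlinear concentration-inhibition regression.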
# KIF18A = KIF18A (Homo sapiens (Human), UniProt Q8NI77); experiment: KIF18A ATPase activity under tubulin stimulation (ADP-Glo assay); assay type: biochemical; conditions: KIF18A 30 nM, ATP 150 μM, pig microtubules
# HCC1954 cells = experiment: HCC1954 cell proliferation (Cell Titer-Glo, 6 days); assay type: cell-based; conditions: KIF18A-sensitive tumor cells
# Description: (§3) The inhibitory effect on the KIF18A target by the compounds of the present disclosure was evaluated by testing the inhibitory effect on proliferation of HCC1954 and HCC1395 cells by the compounds of the present disclosure.
# (§4) HCC1954 (ATCC, CRL-2388) and HCC1395 (ATCC, CRL-2324) cells were cultured separately in RPMI-1640 complete medium (Gibco, A1049101) containing 20% fetal bovine serum (Gibco, 10099141C), 100 U penicillin, and 100 μg/mL streptomycin (Gibco, 15140-122). The Promega kit Cell Titer-Glo (Promega: G7572) was used in this method for test. • 1. HCC1954 (KIF18A-sensitive tumor cells) and HCC1395 (KIF18A-insensitive tumor cells) were cultured separately in T75 cell culture flasks (Corning, 430641), and the medium was placed in a 37° C., 5% CO2 incubator. • 2. When the cell density reached 70% to 80% (about 2 to 3 times per week), cells are passaged with trypsin (0.25% EDTA). • 3. The cell culture flask was taken out and the cells were separated by adding 2 mL of trypsin (0.25% EDTA source) for 5 minutes. • 4. Digestion was stopped by adding 8 mL of RPM1-1640 medium and the cell suspension was transferred to a centrifuge tube and centrifuged at 1000 rpm for 5 minutes. • 5. The cells were resuspended with 5 mL of RPMI-1640 medium. Cell density was adjusted to 5×10^3/mL (HCC1954), and 2.5×10^4/mL (HCC1395), respectively. • 6. 40 μL of cell solution was added to the 384-well plate (Corning, 3765). • 7. The 384-well plate was centrifuged at 1000 rpm for 1 minute. • 8. The cells were cultured overnight in a 37° C., 5% CO2 incubator. • 9. The next day, 40 nL of compound solution was added to the 384-well plate using Echo650. The plate was then placed in a 37° C., 5% CO2 incubator for 6 days. • 10. After 6 days, 20 μL of Cell-Titer-Glo (Promega, G7572) reagent was added per well. • 11. Luminescence values were measured using the EnVision Xcite Multilabel Reader (PerkinElmer, 2105-0020).
# as §1, with “(0.1%” for “(0.3%”
# HCC1395 cells = experiment: HCC1395 cell proliferation (Cell Titer-Glo, 6 days); assay type: cell-based; conditions: KIF18A-insensitive tumor cells
# Description: as §3, §4
# as §1, with “(0.1%” for “(0.3%”
# PK study in ICR mice = assay type: in vivo, mouse; conditions: both sexes, mouse, plasma, route and dose not given
# Description: 6 ICR mice (male/female) were divided into two groups, administered orally and intravenously, respectively, with 3 mice/group. The mice were fasted for 10-14 hours prior to dosing with free access to water.
# The test compound was weighed according to the administration dose, and prepared into a dose formulation at appropriate concentrations (for rats and mice, intravenous and oral administration at a volume of 5 mL/kg and 10 mL/kg, respectively), wherein the intravenous injection was a clear solution, and the oral preparation was a clear solution or a homogeneous suspension.
# Animals were dosed by intravenous injection and oral gavage, and blood samples were collected at 0.033, 0.083, 0.25, 0.5, 1, 2, 4, 8, and 24 h after intravenous administration and 0.083, 0.25, 0.5, 1, 2, 4, 6, 8, and 24 h after oral administration. Whole blood was centrifuged at 6800 g for 6 min at 4° C. and the top plasma was stored in a −80° C. freezer for later analysis.
# The DMSO stock solution of the test compound was diluted into a series of working solutions with a methanol or an acetonitrile solution, and added to a blank plasma matrix, and standard curves were generated and quality control samples were prepared. An appropriate volume of the plasma sample was taken and a suitable multiple of methanol or acetonitrile containing an internal standard was added for protein precipitation based on the response. After centrifugation of all samples at 18000 g for 10 min at 4° C., an appropriate amount of supernatant was taken for LC-MS/MS injection analysis.
# Drug concentration-time curves in plasma were plotted according to test concentrations, and pharmacokinetic parameters were calculated using noncompartmental analysis by WinNonlin software, including: half-life (T½), area under the concentration-time curve from time zero to time t (AUCO-t), clearance (CL), volume of distribution at steady state (Vss) and bioavailability (F), with some of the test results shown in Table 4.
# Sequence of KIF18A (Q8NI77 whole entry): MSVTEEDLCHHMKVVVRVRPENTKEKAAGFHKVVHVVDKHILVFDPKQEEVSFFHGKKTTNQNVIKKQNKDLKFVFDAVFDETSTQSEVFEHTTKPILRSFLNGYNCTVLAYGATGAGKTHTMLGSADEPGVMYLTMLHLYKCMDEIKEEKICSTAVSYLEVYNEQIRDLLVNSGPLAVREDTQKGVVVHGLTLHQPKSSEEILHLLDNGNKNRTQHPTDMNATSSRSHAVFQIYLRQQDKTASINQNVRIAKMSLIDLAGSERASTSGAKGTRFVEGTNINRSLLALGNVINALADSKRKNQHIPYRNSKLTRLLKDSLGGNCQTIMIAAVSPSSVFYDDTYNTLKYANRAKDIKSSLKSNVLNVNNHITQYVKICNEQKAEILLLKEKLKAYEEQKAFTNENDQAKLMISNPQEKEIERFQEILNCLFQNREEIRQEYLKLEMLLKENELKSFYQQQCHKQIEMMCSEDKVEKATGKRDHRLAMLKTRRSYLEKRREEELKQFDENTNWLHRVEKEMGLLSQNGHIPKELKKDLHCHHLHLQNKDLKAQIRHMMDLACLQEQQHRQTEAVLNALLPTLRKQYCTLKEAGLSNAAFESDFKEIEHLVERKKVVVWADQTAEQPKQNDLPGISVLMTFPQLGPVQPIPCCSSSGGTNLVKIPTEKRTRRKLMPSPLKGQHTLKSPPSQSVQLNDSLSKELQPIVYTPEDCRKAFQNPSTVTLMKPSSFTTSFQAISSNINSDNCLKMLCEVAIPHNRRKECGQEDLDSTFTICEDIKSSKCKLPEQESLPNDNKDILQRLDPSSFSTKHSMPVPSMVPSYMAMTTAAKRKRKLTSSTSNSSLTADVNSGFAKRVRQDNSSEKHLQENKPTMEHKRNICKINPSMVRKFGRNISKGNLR
# Sequence of KIF18A (P02550 whole entry partner): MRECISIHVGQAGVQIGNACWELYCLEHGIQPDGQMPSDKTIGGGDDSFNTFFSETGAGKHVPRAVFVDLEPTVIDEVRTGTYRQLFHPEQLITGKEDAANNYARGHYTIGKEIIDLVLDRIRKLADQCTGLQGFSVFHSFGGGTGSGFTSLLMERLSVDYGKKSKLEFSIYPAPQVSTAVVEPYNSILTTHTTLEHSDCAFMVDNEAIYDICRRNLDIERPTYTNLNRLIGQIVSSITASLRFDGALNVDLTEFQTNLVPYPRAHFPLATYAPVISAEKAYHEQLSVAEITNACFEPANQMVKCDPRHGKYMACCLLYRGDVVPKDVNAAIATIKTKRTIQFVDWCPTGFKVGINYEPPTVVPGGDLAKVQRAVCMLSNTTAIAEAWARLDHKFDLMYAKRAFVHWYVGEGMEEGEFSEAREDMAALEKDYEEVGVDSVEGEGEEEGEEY
# Sequence of KIF18A (P02554 whole entry partner): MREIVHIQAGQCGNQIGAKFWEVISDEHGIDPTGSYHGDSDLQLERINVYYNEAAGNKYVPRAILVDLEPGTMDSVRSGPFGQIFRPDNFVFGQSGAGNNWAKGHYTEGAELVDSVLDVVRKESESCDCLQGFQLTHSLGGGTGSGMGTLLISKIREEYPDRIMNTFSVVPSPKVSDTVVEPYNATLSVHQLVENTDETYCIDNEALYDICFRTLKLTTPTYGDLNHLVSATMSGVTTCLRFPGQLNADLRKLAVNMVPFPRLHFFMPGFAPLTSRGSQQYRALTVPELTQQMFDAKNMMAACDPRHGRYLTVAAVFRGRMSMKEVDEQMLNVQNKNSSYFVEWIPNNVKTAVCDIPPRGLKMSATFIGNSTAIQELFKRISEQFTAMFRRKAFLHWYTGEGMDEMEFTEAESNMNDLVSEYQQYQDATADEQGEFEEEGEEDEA
IC50 (HT-29 cells) [nM],"IC50 (OVCAR-3 cells; Homo sapiens, OVCAR-3, 240 h) [nM]",IC50 (KIF18A) [nM],"IC50 (HCC1954 cells; Homo sapiens, HCC1954, 144 h) [nM]",IC50 (HCC1954 cells) [nM],SMILES,other results
≤ 200,≤ 50,,,,"COc1ccc(NC(=O)c2ccc(NS(=O)(=O)CCO)cc2N2CCC3(CC2)CC3)c2cc3n(c12)CCOC3 [Compound 404, 4-((2-hydroxyethyl)sulfonamido)-N-(6-methoxy-3,4-dihydro-1H-[1,4]oxazinyl[4,3-a]indol-9-yl)-2-(6-azaspiro[2.5]oct-6-yl)benzamide]",IC50 (A2780 cells): > 10000 nM; IC50 (HCT116 cells): > 10000 nM
,≤ 50,50 to 500,≤ 10,,"Cc1cc(NC(=O)c2c(N)cc(NS(=O)(=O)CCO)cc2N2CCC3(CC2)CC3)nc(N2CCC(F)(F)CC2)n1 [Example 3, 2-amino-N-(2-(4,4-difluoropiperidin-1-yl)-6-methylpyrimidin-4-yl)-4-(2-hydroxyethylsulfonamido)-6-(6-azaspiro[2.5]octan-6-yl)benzamide]","IC50 (HCC1395 cells; Homo sapiens, HCC1395, 144 h): > 5000 nM"
,,50 to 500,,10 to 500,Nc1cc(NS(=O)(=O)CCO)cc(N2CCC3(CC2)CC3)c1C(=O)Nc1cccc2c1ccn2CC1CC1 [Example 41],IC50 (OVCAR-3 cells): 50 to 500 nM
,,≤ 50,,≤ 10,"O=C(Nc1cccc2c1cc1n2CCC1)c1ccc(NS(=O)(=O)CCO)cc1N1CCC2(CC1)CC2 [Example 129, N-(2,3-dihydro-1H-pyrrolo[1,2-a]indol-8-yl)-4-((2-hydroxyethyl)sulfonamide)-2-(6-azaspiro[2.5]octan-6-yl)benzamide]",IC50 (HCC1395 cells): > 5000 nM
200 to 1000,50 to 500,≤ 50,,,"O=C(Nc1cccc2c1cc1n2CC2(CC2)OC1)c1ccc(NS(=O)(=O)CCO)cc1N1CCC(=C(F)F)CC1 [Example 485, 2-(4-(difluoromethylene)piperidin-1-yl)-4-((2-hydroxyethyl)sulfonamido)-N-(1′H,4′H-spiro[cyclopropane-1,3′-[1,4]oxazino[4,3-a]indole]-9′-yl)benzamide]",AUC (PK study in ICR mice; read-out: AUC): 33300 ng·h/mL; Cmax (PK study in ICR mice; read-out: Cmax): 3740 ng/mL
,50 to 500,50 to 500,10 to 500,,"CC1(C)Cc2nc3c(NC(=O)c4ccc(NS(=O)(=O)CCO)cc4N4CCC5(CC4)CC5)cccc3n2C1 [Example 490, N-(2,2-dimethyl-2,3-dihydro-1H-benzo[d]pyrrolo[1,2-a]imidazol-5-yl)-4-((2-hydroxyethyl)sulfonamido)-2-(6-azaspiro[2.5]oct-6-yl)benzamide]",

# Source: patent US20260070887A1 (Shenzhen Zhongge Biological Technology Co., Ltd., priority 2022, published 2026)
